From publication PMC7356104, “Oral Administration of Artemisone for the Treatment of Schistosomiasis: Formulation Challenges and In Vivo Efficacy” (Pharmaceutics, 2020)
In brackets after ≈: the same amount, converted by molar mass. Like-named read-outs stand apart in the source and are kept apart here. Values belong to the molecule of their own block, whether it stands above or below them.

Experiments:
S. mansoni = settings: cited from earlier work
[1] = parameters: method as in PMID 21596127; settings: oral Pheroid technology formulation, mice; cited from earlier work
[2] = H2O; cited from earlier work
[3] = Solubility of artemisone in organic solvents, excipients and SMEDDS (HPLC); format: physicochemical; settings: thermodynamic from solid
Procedure: The solubility of artemisone in organic solvents and lipid excipients was determined according to the following procedure: 200 mg artemisone/1.0 mL excipient were placed on an orbital mixing heating plate (Torrey Pines Scientific, Carlsbad, CA, USA) at 25 °C for 24 h under light exclusion. Samples were centrifuged and the supernatant filtered and diluted with ethanol as necessary before HPLC analysis. Samples were prepared in triplicates.
(§1) Artemisone was quantified with high-performance liquid chromatography (HPLC) (Agilent/HP 1100 HPLC series, high-pressure pump, degasser, UV-VIS detector and autosampler, now Agilent Technologies, Inc., Santa Clara, CA, USA), using a method we developed and validated according to the ICH guidelines, over a range of 10–500 µg artemisone/mL (Table 1).

[4] = Storage stability of artemisone in SMEDDS and PBS at 30 °C (HPLC); format: physicochemical; settings: 80 µg/mL in PBS pH 6.5, 30 °C, light exclusion
Procedure: as §1
Artemisone (50 mg/g) was dissolved in SMEDDS-100. For SMEDDS-50-ART and SMEDDS-20-ART, PBS was added to the drug-loaded formulation to give the microemulsions, containing 25 mg/g and 10 mg/g artemisone, respectively. A solution of 80 µg/mL artemisone in PBS pH 6.5 Ph.Eur. was prepared and used as control, the pH found for SMEDDS-50 and SMEDDS-20 also being around 6.5. Triplicates of all three preparations were stored in glass vials with Teflon sealed lids at 30 °C under light exclusion. Samples were taken after 14, 28, 42, 56, and 92 days and analyzed via HPLC to monitor drug stability.

[5] = parameters: method as in earlier work; settings: cited from earlier work
[6] = system: P. falciparum NF54 parasites; assay: In vitro efficacy on P. falciparum in culture; format: cell-based, Plasmodium falciparum; settings: 48 h
Procedure: P. falciparum NF54 parasites were cultivated at 4% hematocrit in RPMI 1640 medium, 0.5% Albumax II (Invitrogen, Carlsbad, CA, USA), 0.25% sodium bicarbonate, and 0.1 mg/mL gentamicin. 200 µL of parasite suspension at 1% parasitemia were incubated in a Nunc microplate, in 96 flat-bottom wells, at 37 °C, in an atmosphere of 5% oxygen, 5% carbon dioxide and 90% nitrogen. Drug dilutions were added in triplicates in 25 µL. After 48 h P. falciparum parasitaemias were estimated by microscopic determination of the percent of parasitized erythrocytes in a total of 5000 erythrocytes, using Giemsa stained blood smears that were prepared from triplicate individual wells.

[7] = similar procedure (single oral dose)

Structure (SMILES): CO[C@H]1O[C@@H]2O[C@@]3(C)CC[C@H]4[C@H](C)CC[C@@H]([C@H]1C)[C@@]24OO3 [artemether]
reduction of worm load (S. mansoni; [7]): more than 90%

Structure (SMILES): C[C@H]1[C@H](N2CCSCC2)O[C@@H]2O[C@@]3(C)CC[C@H]4[C@H](C)CC[C@@H]1[C@@]24OO3 [artemiside]
reduction of worm load (S. mansoni; [7]): more than 90%

solubility at 24 h ([3]; oil or lipid, in Polysorb ID 46, 25 °C): 55 mg/mL (≈ 137 mM) | solubility at 24 h ([3]; oil or lipid, in medium chain mono- and diglycerides (Capmul MCM), 25 °C): 62.5 mg/mL (≈ 156 mM) | solubility at 24 h ([3]; oil or lipid, in medium chain triglycerides (MCT), 25 °C): 22.5 mg/mL (≈ 56 mM) | solubility at 24 h ([3]; organic solvent or mixture, in DMF, 25 °C): > 100 mg/mL | solubility at 24 h ([3]; organic solvent or mixture, in DMSO, 25 °C): > 100 mg/mL | solubility at 24 h ([3]; organic solvent or mixture, in acetone, 25 °C): > 100 mg/mL | solubility at 24 h ([3]; organic solvent or mixture, in dichloromethane, 25 °C): > 100 mg/mL | solubility at 24 h ([3]; organic solvent or mixture, in ethanol, 25 °C): 30 mg/mL (≈ 74.7 mM) | solubility at 24 h ([3]; organic solvent or mixture, in hexane, 25 °C): 0.8 mg/mL (≈ 1.99 mM) | solubility at 24 h ([3]; organic solvent or mixture, in methanol, 25 °C): 50 mg/mL (≈ 125 mM) | solubility at 24 h ([3]; organic solvent or mixture, in propylene glycol, 25 °C): 8.5 mg/mL (≈ 21.2 mM) | artemisone recovered after three months [4]: 51.5 ± 0.4%
Structure (SMILES): C[C@H]1[C@H](N2CCS(=O)(=O)CC2)O[C@@H]2O[C@@]3(C)CC[C@H]4[C@H](C)CC[C@@H]1[C@@]24OO3 [artemisone, 4-[(1R,4S,5R,8S,9R,10R,12R,13R)-1,5,9-trimethyl-11,14,15,16-tetraoxatetracyclo-hexadecan-10-yl]-1,4-thiazinane1,1-dioxide]
higher absorption of artemisone compared to an aqueous vehicle containing 10% DMSO [1]: 5.57 fold | aqueous solubility [2]: 0.089 mg/mL (≈ 0.222 mM) | reduction of worm load (S. mansoni; [7]): more than 90% | degradation in aqueous medium ([5]; pH 3): complete degradation was observed within one week | intact compound remained after one month ([5]; pH 5): 20% | intact compound remained after one month ([5]; pH 7.4): 75% | concentration at which parasitaemia was completely blocked [6]: below 11 ng/mL | ED50 ([6]; parasitaemia by Giemsa smears): 1 to 2 ng/mL

Structure (SMILES): C[C@H]1[C@H](OC(=O)CCC(=O)O)O[C@@H]2O[C@@]3(C)CC[C@H]4[C@H](C)CC[C@@H]1[C@@]24OO3 [artesunate]
reduction of worm load (S. mansoni; single oral dose 400 mg/kg in 3% ethanol and 7% Tween 80, 21 days post-infection): 66%
